According to patent US8076359B2, “Renin inhibitors” (Merck Canada Inc., priority 2006, dated 2011):

Columns and labels:
renin in human plasma = target: T1, renin in human plasma (Homo sapiens, UniProt P00797); assay: Inhibition of renin in human plasma (enzymatic in vitro assay, Ang I detected by EIA); assay type: biochemical; conditions: human plasma from 10 normal donors; human recombinant renin 3 pM; 37° C. for 2 h
T1 construct: host or cells: recombinant enzyme added to human plasma from 10 normal donors
T1 sequence (P00797 67-406): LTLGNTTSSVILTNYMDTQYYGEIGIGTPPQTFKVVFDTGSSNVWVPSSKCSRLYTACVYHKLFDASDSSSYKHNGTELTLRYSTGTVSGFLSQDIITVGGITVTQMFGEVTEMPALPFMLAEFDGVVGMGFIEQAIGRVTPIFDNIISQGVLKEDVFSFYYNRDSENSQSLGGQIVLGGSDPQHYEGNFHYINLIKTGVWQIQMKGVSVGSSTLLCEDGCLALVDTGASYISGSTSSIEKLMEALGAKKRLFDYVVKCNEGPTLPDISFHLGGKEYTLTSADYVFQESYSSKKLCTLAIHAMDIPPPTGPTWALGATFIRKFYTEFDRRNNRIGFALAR
Method: Inhibition of Renin in Human Plasma
The enzymatic in vitro assay was performed in 384-well polypropylene plates (Nunc). The assay buffer consisted of PBS (Gibco BRL) including 1 mM EDTA and 0.1% BSA. The reaction mixture was composed of 80 μL per well of human plasma, enzyme, Ang I-antibodies mix and 5 μL of renin inhibitors in DMSO. The human plasma mix was premixed at 4° C. and consists of • human plasma from 10 normal donors • human recombinant renin (3 pM) • Ang I-antibodies. The mixtures were then incubated at 37° C. for 2 h.
To determine the enzymatic activity and its inhibition, the accumulated Ang I was detected by an enzyme immunoassay (EIA) in 384-well plates (Nunc). 10 μL of the reaction mixture or standards were transferred to immuno plates which were previously coated with a covalent complex of Ang I and bovine serum albumin (Ang I-BSA). 70 μL assay buffer were added and the plates were incubated at 4° C. overnight. The plates were washed 3 times with PBS including 0.01% Tween 20, and then incubated for 2 h at RT with an anti rabbit-peroxidase coupled antibody (WA 934, Amersham).

human recombinant renin = target: T2, human recombinant renin (Homo sapiens, UniProt P00797); assay: Inhibition of human recombinant renin (enzymatic in vitro assay in buffer, Ang I detected by EIA); assay type: biochemical; conditions: assay buffer PBS, 1 mM EDTA, 0.1% BSA; human recombinant renin 40 pM; 37° C. for 3 h
T2 sequence (P00797 67-406): T1 sequence (P00797 67-406)
Method: Inhibition of Human Recombinant Renin
The enzymatic in vitro assay was performed in 384-well polypropylene plates (Nunc). The assay buffer consisted of PBS (Gibco BRL) including 1 mM EDTA and 0.1% BSA. The reaction mixture were composed of 47.5 μL per well of an enzyme mix and 2.5 μL of renin inhibitors in DMSO. The enzyme mix was premixed at 4° C. and consists of the following components: • human recombinant renin (40 pM) • synthetic human angiotensin(1-14) (0.5 μM) • hydroxyquinoline sulfate (1 mM) The mixtures were then incubated at 37° C. for 3 h. The enzyme reaction was stopped by placing the reaction plate on wet ice.
To determine the enzymatic activity and its inhibition, the accumulated Ang I was detected by an enzyme immunoassay (EIA) in 384-well plates (Nunc). 5 μL of the reaction mixture or standards were transferred to immuno plates which were previously coated with a covalent complex of Ang I and bovine serum albumin (Ang I-BSA). 75 μL of Ang I-antibodies in assay buffer above including 0.01% Tween 20 were added and the plates were incubated at 4° C. overnight.
An alternative protocol could be used by stopping the enzymatic reaction with 0.02N final concentration of HCl. 5 μL of the reaction mixture or standards were transferred to immuno plates and 75 μL of Ang I-antibodies in assay buffer above including 0.01% Tween 20 were added and the plates were incubate at RT for 4 h. […]

Structure (SMILES) | IC50 (renin in human plasma) | IC50 (human recombinant renin)
COCCCc1cc(CN(C(=O)[C@H]2CNCC[C@@H]2c2ccc(OCCOc3c(Cl)cc(C)cc3Cl)nc2)C2CC2)cc(OCCOC)c1 [Example 2, (3R,4S)-N-Cyclopropyl-4-{6-[2-(2,6-dichloro-4-methylphenoxy)ethoxy]pyridin-3-yl}-N-[3-(2-methoxyethoxy)-5-(3-methoxypropyl)benzyl]piperidine-3-carboxamide] | 6 nM | 0.022 nM
COCCCc1cc(CN(C(=O)[C@H]2CNCC[C@@H]2c2ccc(OCCOc3c(Cl)cc(C)cc3Cl)cc2)C2CC2)cc(OC[C@@H]2C[C@H]2CO)c1 [Example 8] | 2.6 nM | 0.036 nM
